# Assay results published in patent US12319913B2, “5-halouracil-modified microRNAs and their use in the treatment of cancer” (The Research Foundation for The State University of New York, priority 2018, dated 2025).
# [5FU] = 5-fluorouracil base replacing uracil
# Experiments:
# [1] = test system: HCT116 derived colon cancer stem cells; format: cell-based; details: lethal dose of 5-FU at 100 μM
# Description: (§1) For transfections, 1×10^5 cells were plated in six-well plates and transfected with 100 nM of control non-specific miRNA (Thermo Fischer), a modified microRNA, or exogenous native microRNA after 24 hours using Oligofectamine (Thermo Fischer) following the manufacturer's protocols. For reagent free transfection, cells were plated in 6 well plates at (1×10^5) cells per well. Twenty-four hours later 100 pmol miRNA (Control, miR-15a, Mimic-1) were diluted in Optimem (Thermo Fischer) and added to the plate. Media was changed after 24 hours. Media was supplemented with 10% fetal bovine serum (Thermo Fischer). Briefly, cells were cultured in growth media (DMEM/F12 supplemented with B27, 10 ng/mL bFGF, and 20 ng/mL EGF (Life Technologies) in ultra-low attachment flasks) for up to 6 days. The spheroid cells were maintained by collection through gentle centrifugation, dissociation to single cells and replating.
# miR-129 mimics eliminated chemotherapy resistant colon cancer stem cells. To determine the impact of certain exemplary modified microRNAs of the present disclosure (i.e., miR-129 mimics) on 5-FU resistant colon cancer stem cells, HCT116 derived colon cancer stem cells were treated with various concentrations of Mimic-1 or 5-FU.
# [2] = test system: Panc-1 pancreatic cancer cells; experiment: Cell proliferation, Panc-1; format: cell-based, human; details: PANC-1; 50 nM, 25 nM, 12.5 nM, 6.25 nM, and 3.125 nM
# Description: as §1, with “For transfections, 1×10^5 cells were plated in six-well plates and transfected with 100 nM of control non-specific miRNA (Thermo Fischer), a modified microRNA, or exogenous native microRNA after 24 hours using Oligofectamine (Thermo Fischer) following the manufacturer's protocols.” left out
# (§2) Cell proliferation assay: Twenty-four hours after transfection, cells were seeded in 96-well plates at a density of 2000 cells per well. The cell proliferation assay was performed on days 1 to 5 by incubating 10 μl WST-1 (Roche Applied Science, Mannheim, Germany) in the culture medium for 1 h and reading the absorbance at 450 and 630 nm. The cell proliferation rate was calculated by subtracting the […]. Experiments for the cell proliferation assay were performed at least three times. The O.D. was calculated by subtracting the absorbance at 630 nm from that at 450 nm. Proliferation experiments were performed three times.
# [3] = test system: AsPC-1 pancreatic cancer cells; experiment: Cell proliferation, AsPC-1; format: cell-based, human; details: APSC-1; 50 nM, 25 nM, 12.5 nM, 6.25 nM, and 3.125 nM
# Description: as §1, with “For transfections, 1×10^5 cells were plated in six-well plates and transfected with 100 nM of control non-specific miRNA (Thermo Fischer), a modified microRNA, or exogenous native microRNA after 24 hours using Oligofectamine (Thermo Fischer) following the manufacturer's protocols.” left out
# as §2
# A549 lung cancer cells = experiment: Cell proliferation, A549; format: cell-based, human; details: A549, compared to negative controls
# Description: as §1, §2
# [4] = test system: Hs766T pancreatic cancer cells; experiment: Cell proliferation, Hs766T; format: cell-based, human; details: compared to negative controls
# Description: as §1, §2
# AGS stomach cancer cells = experiment: Cell proliferation, AGS; format: cell-based, human; details: compared to negative controls
# Description: as §1, §2
# [5] = test system: SKBR3 breast cancer cells; experiment: Cell proliferation, SKBR3; format: cell-based, human; details: SKBR3, compared to negative controls
# Description: as §1, §2
# [6] = test system: acute lymphocytic leukemia cell line (REH); experiment: Cell proliferation, REH; format: cell-based, human; details: compared to negative controls
# Description: as §1, §2
# [7] = test system: acute lymphocytic leukemia cell line (REH); experiment: Cell proliferation, REH; format: cell-based, human; details: 50 nM, 25 nM, 12.5 nM, 6.25 nM, and 3.125 nM
# [8] = test system: HCT116 colon cancer cells; experiment: WST-1 cell proliferation assay, HCT116; format: cell-based, human; details: HCT116, in words, vs controls
# Description: as §1, with “1×10^5 cells were plated in six-well plates and transfected with 100 nM of control non-specific miRNA (Thermo Fischer), a modified microRNA, or exogenous native microRNA after 24 hours using Oligofectamine” left out
# as §2
# [9] = test system: MDA-MB-231 triple negative breast cancer cells; experiment: MTT cell proliferation, MDA-MB-231, with or without oligofectamine; format: cell-based, human; details: for cell proliferation without delivery vehicle (no oligofectamine): MDA-MB-231, MTT assay
# Description: as §1
# Furthermore, to test whether or not the modified microRNAs of the present disclosure can be delivered directly to cells and taken up by the cancer cells without the use of transfer agents or vehicles (i.e., oligofectamine), MDA-MB-231 triple negative breast cancer cells were transfected with miR-NC (negative control), exogenous unmodified miR-200b or miR-489, 5-FU-miR-200b or modified miR-489 by using oligofectamine or without delivery vehicle. As shown in FIGS. 17A-17B and 20A, the effects of expression of the exemplary modified miRs tested on breast cancer cell proliferation were monitored by MTT assay for 6 days upon transfection or incubation.
Compound,effect on tumor stem cell viability [1],"cell proliferation, dose dependence [2]","cell proliferation, dose dependence [3]",lung cancer cell proliferation (A549 lung cancer cells),pancreatic cancer cell proliferation [4],gastric cancer cell proliferation (AGS stomach cancer cells),breast cancer cell proliferation [5],leukemia cancer cell proliferation [6],"leukemia cancer cell proliferation, dose dependence [7]",inhibition of colon cancer cell proliferation [8],cell proliferation without delivery vehicle (no oligofectamine) [9],"cell proliferation in the presence of oligofectamine ([9]; MDA-MB-231, MTT assay for 6 days, vs miR-NC)",cell proliferation without delivery vehicle (no oligofectamine) ([9]; listed as exogenous miR-200b)
"O=c1[nH]cc(F)c(=O)[nH]1 [5-FU, 5-fluoro-1H-pyrimidine-2,4-dione, reference compound]",minimal effect,,,,,,,,,,,,
"AU^FCCU^FU^FGCUAU^FCU^FGGGU^FGCU^FA (AUCCUUGCUAUCUGGGUGCUA; RNA, [5FU] at 2, 5, 6, 11, 13, 17, 20, backbone not given here) [modified miR-502]",,inhibited in a dose dependent manner,inhibited in a dose dependent manner,inhibited,inhibited,inhibited,inhibited,inhibited,inhibited in a dose dependent manner,,,,
"CAGU^FGGUUUUACCCU^FAUGGU^FAG (CAGUGGUUUUACCCUAUGGUAG; RNA, [5FU] at 4, 15, 20, backbone not given here) [modified miR-140 [SEQ ID NO. 9], miR-140 in which certain (3) U bases are replaced by 5-fluorouracil]",,,,,,,,,,increased ability to inhibit colorectal cancer cell proliferation,,,
"CAGU^FGGU^FU^FU^FU^FACCCU^FAU^FGGU^F AG (CAGUGGUUUUACCCUAUGGUAG; RNA, [5FU] at 4, 7, 8, 9, 10, 15, 17, 20, backbone not given here) [modified miR-140 [SEQ ID NO. 16]]",,inhibited in a dose dependent manner,inhibited in a dose dependent manner,inhibited,inhibited,inhibited,inhibited,inhibited,inhibited in a dose dependent manner,,,,
"CU^FGACCU^FAU^FGAAU^FU^FGACAGCC (CUGACCUAUGAAUUGACAGCC; RNA, [5FU] at 2, 7, 9, 13, 14, backbone not given here) [modified miR-192]",,inhibited in a dose dependent manner,inhibited in a dose dependent manner,inhibited,inhibited,inhibited,inhibited,inhibited,inhibited in a dose dependent manner,increased ability to inhibit colorectal cancer cell proliferation,,,
"UAAUACUGCCUGGUAAUGAUGA (chemistry not fully specified; listed as Homo sapiens) [native miR-200b, 21]",,,,,,,,,,,had no effects on proliferation,reduced the rate of cell proliferation,did not inhibit cell growth
"U^FAACACU^FGU^FCU^FGGU^FAACGAU^FGU^F (UAACACUGUCUGGUAACGAUGU; U replaced by 5-fluorouracil, chemistry not fully specified) [modified miR-200a, miR-200a in which all (7) U bases are replaced by 5-fluorouracil]",,inhibited in a dose dependent manner,inhibited in a dose dependent manner,inhibited,inhibited,inhibited,inhibited,inhibited,inhibited in a dose dependent manner,,,,
U^FAAU^FACU^FGCCGGGU^FAAU^FGAU^FGGA [modified miR-200c],,inhibited in a dose dependent manner,inhibited in a dose dependent manner,inhibited,inhibited,inhibited,inhibited,inhibited,inhibited in a dose dependent manner,,,,
"U^FAU^FU^FCAGGAAGGU^FGU^FU^FACU^FU^FAA (UAUUCAGGAAGGUGUUACUUAA; RNA, [5FU] at 1, 3, 4, 13, 15, 16, 19, 20, backbone not given here) [modified miR-506, miR-506 in which all (8) U bases are replaced by 5-fluorouracil]",,inhibited in a dose dependent manner,inhibited in a dose dependent manner,inhibited,inhibited,inhibited,inhibited,inhibited,inhibited in a dose dependent manner,,,,
"U^FGGCAGU^FGU^FCU^FU^FAGCU^FGGU^FU^FGU^F (UGGCAGUGUCUUAGCUGGUUGU; all U replaced by 5-fluorouracil, chemistry not fully specified) [modified miR-34, miR-34 in which all (9) U bases are replaced by 5-fluorouracil]",,inhibited in a dose dependent manner,inhibited in a dose dependent manner,inhibited,inhibited,inhibited,inhibited,inhibited,inhibited in a dose dependent manner,,,,
"U^FGU^FAACAGCAACU^FCCAU^FGU^FGGA (UGUAACAGCAACUCCAUGUGGA; RNA, [5FU] at 1, 3, 13, 17, 19, backbone not given here) [modified miR-194]",,inhibited in a dose dependent manner,inhibited in a dose dependent manner,inhibited,inhibited,inhibited,inhibited,inhibited,inhibited in a dose dependent manner,,,,
